We go through one compound from article PMC9854573, “Baicalein Attenuates Brain Iron Accumulation through Protecting Aconitase 1 from Oxidative Stress in Rotenone-Induced Parkinson’s Disease in Rats” (Antioxidants, 2022).

For assay [1], the target named is T1, ACO1 (aconitase activity of rat heart homogenate supernatant).
T1 construct: crude rat heart homogenate, 12,000 x g supernatant
The assay is described as follows: aconitase activity, absorbance of aconitate at […] nm. The assay is classed as biochemical. The note with it: 10 min preincubation, citrate 4 μM, 100 μg protein, Tris-HCl 20 mM pH 7.4, room temperature, no oxidant.

The target in assay [2] is T2, ACO1 (recombinant human ACO1 protein) (Homo sapiens, UniProt P21399).
T2 construct: immobilised on CM5 chip at pH 4.0
T2 sequence (P21399 1-889): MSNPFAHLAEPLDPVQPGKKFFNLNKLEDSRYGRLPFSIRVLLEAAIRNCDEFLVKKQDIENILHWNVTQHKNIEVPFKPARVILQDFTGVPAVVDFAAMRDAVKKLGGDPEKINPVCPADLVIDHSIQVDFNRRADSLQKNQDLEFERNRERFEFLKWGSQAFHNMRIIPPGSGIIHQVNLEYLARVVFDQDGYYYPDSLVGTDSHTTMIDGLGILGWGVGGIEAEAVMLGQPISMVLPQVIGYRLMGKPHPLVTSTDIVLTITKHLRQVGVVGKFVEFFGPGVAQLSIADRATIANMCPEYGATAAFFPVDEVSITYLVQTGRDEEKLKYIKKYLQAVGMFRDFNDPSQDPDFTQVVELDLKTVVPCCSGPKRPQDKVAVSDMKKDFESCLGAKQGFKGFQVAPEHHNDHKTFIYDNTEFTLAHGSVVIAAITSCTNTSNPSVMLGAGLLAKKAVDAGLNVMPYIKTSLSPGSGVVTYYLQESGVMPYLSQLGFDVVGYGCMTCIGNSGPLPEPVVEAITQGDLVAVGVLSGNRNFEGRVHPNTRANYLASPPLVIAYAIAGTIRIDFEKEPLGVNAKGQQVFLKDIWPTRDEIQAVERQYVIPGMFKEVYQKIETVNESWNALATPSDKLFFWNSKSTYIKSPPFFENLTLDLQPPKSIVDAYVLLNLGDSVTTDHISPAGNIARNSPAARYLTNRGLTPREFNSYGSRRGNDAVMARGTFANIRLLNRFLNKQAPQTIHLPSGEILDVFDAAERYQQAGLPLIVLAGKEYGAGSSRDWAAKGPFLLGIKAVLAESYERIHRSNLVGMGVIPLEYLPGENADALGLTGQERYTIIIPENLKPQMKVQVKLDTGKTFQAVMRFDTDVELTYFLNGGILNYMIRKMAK
As to the kind of experiment: surface plasmon resonance (Biacore X100, CM5 chip). Format: binding. Background: Surface plasmon resonance follows binding to a sensor surface in real time, without labels.

With `O=c1cc(-c2ccccc2)oc2cc(O)c(O)c(O)c12` [baicalein, 5,6,7-trihydroxyflavone], the IC50 (usually the concentration that inhibits the measured activity by half) in assay [1] stood at 166 µM. The Kd (in general, the free concentration of one partner at which half of the binding sites on the other are occupied at equilibrium, for simple one-to-one binding) in assay [2] turned out to be 198 µM.
